Values of other authors in patent US20220233546A1, “Neurologist Formulated Nocturnal Nootropic Founded on a Novel Theory of Brain Aging” (priority 2022, published 2022).
Where two headings read alike, the source gives them in different places. One block for each compound: values may come before it.

Columns and labels:
[1] = daily dose of 200 to 2400 mg/day
[2] = in vivo
[3] = tested on: young persons with multiple sclerosis
[4] = tested on: persons with Alzheimer's disease, Parkinson's disease, and multiple sclerosis; settings: combination therapy including Apigenin 100 mg
[5] = tested on: plasma homocysteine; settings: supplementation, human
[6] = human; saffron extract 56 mg and 84 mg
[7] = tested on: adults without dementia
[8] = 675 mg, at 4 weeks
[9] = tested on: children with autism spectrum disorder; settings: combination therapy including Luteolin 100 mg
[10] = tested on: amyotrophic lateral sclerosis (ALS)
[11] = tested on: multiple sclerosis; settings: high doses; adjunctive therapy in multiple sclerosis
[12] = tested on: persons with mild cognitive impairment
[13] = tested on: persons with mild cognitive impairment; remark: listed apart in the source
[14] = tested on: neurohypophyseal hormone release

SMILES: O=C(O)CCCCC1CCSS1 (racemic) [ALA, Alpha Lipoic Acid]
safety and tolerability [1]: safe and well-tolerated

bioavailability [2]: 50%
SMILES: C/C1=C2/[N-][C@H]([C@H](CC(N)=O)[C@@]2(C)CCC(=O)NC[C@H](C)OP(=O)([O-])O[C@H]2[C@@H](O)[C@@H](n3cnc4cc(C)c(C)cc43)O[C@@H]2CO)[C@]2(C)N=C(/C(C)=C3N=C(/C=C4N=C1[C@@H](CCC(N)=O)C\4(C)C)[C@@H](CCC(N)=O)[C@]\3(C)CC(N)=O)[C@@H](CCC(N)=O)[C@]2(C)CC(N)=O.[Co+2] (stereo in doubt) [cobalamin]

SMILES: O=C(O)CCCC[C@@H]1CCSS1 [(R)-Alpha Lipoic Acid]
safety and tolerability profile ([3]; human, in vivo): good safety and tolerability profile | reduction of yearly rate of brain atrophy ([3]; young persons with multiple sclerosis): ~70%

SMILES: O=c1cc(-c2ccc(O)cc2)oc2cc(O)cc(O)c12 [Apigenin]
clinical course and biomarkers including abnormal protein deposition [4]: trend towards clinical stabilization and reduction of specific biomarkers

SMILES: C[N+](C)(C)CC(=O)O [Betaine]
plasma homocysteine concentrations [5]: significant reduction

bioavailability [6]: 40% | serum concentration of saffron isomers [6]: detected at a significant concentration
SMILES: CC(/C=C/C=C(\C)C(=O)O)=C\C=C\C=C(C)\C=C\C=C(/C)C(=O)O [Crocetin]

SMILES: COc1cc(/C=C/C(=O)CC(=O)/C=C/c2ccc(O)c(OC)c2)ccc1O [Curcumin]
working memory and attention (Buschke Selective Reminding Test, Brief Visual Memory Test-Revised, Trail Making A) ([7]; adults without dementia): improves working memory and attention | post-interventional changes in pathological proteins (amyloid and tau) by positron emission tomography ([7]; brain regions including the amygdala): significant decrease in pathological proteins

increase in CSF Threonate concentration [8]: 54% | increase in magnesium concentration ([8]; CSF): 15% | Threonate concentration in cerebrospinal fluid (CSF) (CSF): ~100 µM | Threonate concentration in plasma (plasma): approximately 20 μM
SMILES: O=C(O)[C@H](O)[C@@H](O)CO [L-Threonate]

SMILES: O=c1cc(-c2ccc(O)c(O)c2)oc2cc(O)cc(O)c12 [Luteolin]
adaptive functioning and Aberrant Behavior Checklist subscale scores [9]: improvement in adaptive functioning and reduction in Aberrant Behavior Checklist subscale scores | adverse effects [9]: no adverse effects

SMILES: COc1cc(/C=C/c2ccc(O)cc2)cc(OC)c1 [Trans-Pterostilbene]
function and progression of neurodegenerative processes [10]: significantly improves function in and slows progression of neurodegenerative processes

SMILES: C=C1CC[C@H](O)C/C1=C/C=C1\CCC[C@]2(C)[C@@H]([C@H](C)CCCC(C)C)CC[C@@H]12 [cholecalciferol, Cholecalciferol]
brain lesions, disability and mobility [11]: fewer new brain lesions, reduced disability, and improved mobility

SMILES: Nc1nc2ncc(CNc3ccc(C(=O)N[C@@H](CCC(=O)O)C(=O)O)cc3)nc2c(=O)[nH]1 [folic acid]
dementia-related biomarkers (beta-amyloid, homocysteine, S-adenosylmethionine, amyloid precursor protein mRNA expression) [12]: deceases dementia-related biomarkers | cognitive function (full scale IQ, verbal IQ, verbal comprehension index, working memory index) ([12]; pre- and post-intervention): improves cognitive function

SMILES: COc1ccc2[nH]cc(CCNC(C)=O)c2c1 [melatonin, Melatonin]
cognition after a battery of neurocognitive testing [13]: significant improvement in cognition | neurohypophyseal hormone release ([14]; higher dose melatonin 5 mg): inhibited | neurohypophyseal hormone release ([14]; low dose melatonin 0.5 mg): augmented

SMILES: CC1=C(C=O)C(C)(C)CC=C1 [safranal, reference compound]
serum concentration of saffron isomers [6]: undetectable
